Data taken from patent US7671057B2, “Therapeutic agent for type II diabetes comprising protease-inhibiting compound” (Ono Pharmaceutical Co., Ltd., priority 2004, dated 2010).
Marks after values point to notes of the source that are not given here.

Columns and labels:
Format in all cases: in vivo, mouse
KK-A^y/Ta Jcl mice [1] = assay: Plasma TC, TG, blood-sugar, IRI and IRG levels 3 hours subsequent to the glucose-loading test (Example 1); details: 3 hours subsequent to glucose-loading test
Method: (§1) As from Day 14 afterwards, the animals after being fasted for 18 hours or more were loaded orally with a glucose solution (2 g/kg, 10 mL/kg), whereby the blood-sugar levels were measured before, and 120 min. after, the said glucose loading. Each of the compounds was given orally to the animals 3 hours prior to the glucose loading, and the whole blood was drawn from each of the animals under anesthesia. Each of the said blood samples was centrifuged to yield a blood plasma, and the resultant blood plasmas were all preserved under freezing in a ultra-low-temperature freezer for subsequent use in the below-described measurements.
(§2) The blood-sugar level, total cholesterol level (hereinafter referred to briefly as “TC level”) and triglyceride level (hereinafter referred to briefly as “TG level”) were detected individually in accordance with the hexokinase/G-6-PDH method, enzyme method and GPO/HDAOS method, and measured with use of Biochemical Auto-Analyzer (Model AU 400, manufactured by Olympus Co. of Japan). The plasma insulin level (hereinafter referred to briefly as “IRI level”) and the plasma glucagon level (hereinafter referred to briefly as “IRG level”) were detected individually with the ELISA method (Lebisinsulin Mouse Insulin Kit, produced by K.K. Shibayagi of Japan) and the ELISA method (YK090 Glucagon EIA Kit, produced by K.K. Yanaihara Kenkyuu-sho of Japan), followed by measurement with use of a plate reader (Immuno Mini NJ-2300, Nalge Nunc International K.K. of Japan).
(§3) The blood-sugar, TC, TG, IRI and IRG levels and the body weight were expressed as a mean value±standard deviation as calculated for each group of animals. With reference to the significance test between the group treated through administration of the medium and each group treated through administration of the compound, the F test was effected to analyze the data and then, the Student's t-test and Aspin-Welch's t-test were used in cases where the variance between the two groups was determined to be equal and unequal, respectively. Referring to the significance level, less than 5% (p<0.05) was considered significant, and the significance level was expressed as divided into the two events of less than 1% (**: p<0.01) and less than 5% (*: p<0.05).

[2] = Body weight after repeated administration for 14 days (Example 1); details: after repeated administration for 14 consecutive days
Method: Following the above-described single administration, the repeated, once-a-day forced oral administration of each compound was performed at the same daily dose for the total period of 14 consecutive days. […] The blood-sugar, TC, TG, IRI and IRG levels and the body weight were expressed as a mean value±standard deviation as calculated for each group of animals. With reference to the significance test between the group treated through administration of the medium and each group treated through administration of the compound, the F test was effected to analyze the data and then, the Student's t-test and Aspin-Welch's t-test were used in cases where the variance between the two groups was determined to be equal and unequal, respectively.

KK-A^y/Ta Jcl mice [3] = assay: Glucose loading test after repeated administration for 14 days (Example 1)
Method: as §1, §2, §3

KK-A^y/Ta Jcl mice [4] = assay: Blood-sugar level after single and repeated oral administration (Example 1)
Method: On the day of initiation of administration (Day 1 of Administration), the obese/spontaneously type II diabetic mice; KK-A^y/Ta Jcl mice (male, 6-weeks aged, n=8) were treated through individual oral administration of the Test Compound 1 (ethyl N-allyl-N—[(E)-2-methyl-3-[4-(4-amidinophenoxycarbonyl)-phenyl]propenoyl]aminoacetate/methanesulfonate) of the present invention and the Control Compound 1 (5-{4-[2-(5-ethylpyridine-2-yl)ethoxy]benzyl}-1,3-thiazolidine-2,4-dione; pioglitazone) at the daily dose of 30 mg/kg, or the control medium (0.5% CMC), and blood was drawn from each animal through the orbital venous plexus 6 hours after administration. The blood-sugar levels were measured in accordance with the enzyme electrode method by use of Antosense II (manufactured by Daikin Kogyo KK of Japan). The said test was carried out while the animals were allowed free access to food and water.
Following the above-described single administration, the repeated, once-a-day forced oral administration of each compound was performed at the same daily dose for the total period of 14 consecutive days. On Days 3 and 11, blood was drawn in the same manner as described above 6 hours after administration of each compound, followed by measurement of the blood-sugar level.
as §3

[5] = repeated once-a-day oral 30 mg/kg, 6 hours after administration

C=CCN(CC(=O)OCC)C(=O)/C(C)=C/c1ccc(C(=O)Oc2ccc(C(=N)N)cc2)cc1 [Test Compound 1, ethyl N-allyl-N—[(E)-2-methyl-3-[4-(4-amidinophenoxycarbonyl)-phenyl]propenoyl]aminoacetate/methanesulfonate]
Effect on IRG level (in words) (KK-A^y/Ta Jcl mice [1]; after 14 days): a decrease in the IRG level
Effect on IRI level (in words) (KK-A^y/Ta Jcl mice [1]; after 14 days): an increase in the IRI level
Effect on TC level (in words) (KK-A^y/Ta Jcl mice [1]; after 14 days): decreases
Effect on TG level (in words) (KK-A^y/Ta Jcl mice [1]; after 14 days): decreases
Effect on blood-sugar level (in words) (KK-A^y/Ta Jcl mice [1]; after 14 days): a decrease in the blood-sugar level
Blood-sugar level (KK-A^y/Ta Jcl mice [1]; after 14 days 30 mg/kg p.o.): 251.0 ± 7.2 mg/dL
IRG (plasma glucagon level) (KK-A^y/Ta Jcl mice [1]; after 14 days 30 mg/kg p.o.): 411 ± 31.5 pg/mL
IRI (plasma insulin level) (KK-A^y/Ta Jcl mice [1]; after 14 days 30 mg/kg p.o.): 1.74 ± 0.17 ng/mL
TC (KK-A^y/Ta Jcl mice [1]; after 14 days 30 mg/kg p.o.): 99.2 ± 3.6 mg/dL
TG (KK-A^y/Ta Jcl mice [1]; after 14 days 30 mg/kg p.o.): 81.4 ± 7.1 mg/dL
Effect on mouse body-weight vs control medium group (in words) [2]: did not show any changes in the mouse body-weight
Body weight ([2]; 30 mg/kg p.o.): 29.3 ± 0.3 g
Blood-sugar level before glucose loading (KK-A^y/Ta Jcl mice [3]; after 14 days 30 mg/kg p.o., fasted, compound 3 hours prior to loading): 155.0 ± 5.2 mg/dL
Blood-sugar level 120 Min. after glucose loading (KK-A^y/Ta Jcl mice [3]; after 14 days 30 mg/kg p.o., glucose 2 g/kg orally): 235.0 ± 5.9* mg/dL
Blood-sugar lowering action in the glucose loading test vs medium control group (in words) (KK-A^y/Ta Jcl mice [3]; after repeated administration for 14 consecutive days): significant blood-sugar lowering action
Effect on impaired glucose tolerance (in words) (KK-A^y/Ta Jcl mice [3]; repeated forced oral administration, spontaneously diabetic mice): ameliorated impaired glucose tolerance
Blood-sugar level before administration (KK-A^y/Ta Jcl mice [4]; Day 1, before single oral administration of 30 mg/kg (baseline)): 443.5 ± 19.6 mg/dL
Blood-sugar lowering action (in words) (KK-A^y/Ta Jcl mice [4]; repeated administration 30 mg/kg, Days 3 and 11): blood-sugar lowering action
Blood-sugar level Day 3 (KK-A^y/Ta Jcl mice [4]; [5]): 205.5 ± 7.0* mg/dL
Blood-sugar level Day 11 (KK-A^y/Ta Jcl mice [4]; [5]): 297.4 ± 18.4 mg/dL
Blood-sugar lowering action vs control medium group (in words) (KK-A^y/Ta Jcl mice [4]; single administration 30 mg/kg, 6 hours after administration): significant blood-sugar lowering action
Blood-sugar level 6 hrs. after administration (KK-A^y/Ta Jcl mice [4]; single oral administration, 30 mg/kg): 263.5 ± 11.0* mg/dL
